# Patent US6878804B1, “Synthesis of template-fixed β-hairpin loop mimetics” (University of Zurich, priority 1999, dated 2005)
# Non-standard residues stand in square brackets, D forms with d. Residues, ends and D or L forms follow the SMILES beside them.
# T1: platelet-derived growth factor β-receptor (PDGFR-β)
# T1 chain: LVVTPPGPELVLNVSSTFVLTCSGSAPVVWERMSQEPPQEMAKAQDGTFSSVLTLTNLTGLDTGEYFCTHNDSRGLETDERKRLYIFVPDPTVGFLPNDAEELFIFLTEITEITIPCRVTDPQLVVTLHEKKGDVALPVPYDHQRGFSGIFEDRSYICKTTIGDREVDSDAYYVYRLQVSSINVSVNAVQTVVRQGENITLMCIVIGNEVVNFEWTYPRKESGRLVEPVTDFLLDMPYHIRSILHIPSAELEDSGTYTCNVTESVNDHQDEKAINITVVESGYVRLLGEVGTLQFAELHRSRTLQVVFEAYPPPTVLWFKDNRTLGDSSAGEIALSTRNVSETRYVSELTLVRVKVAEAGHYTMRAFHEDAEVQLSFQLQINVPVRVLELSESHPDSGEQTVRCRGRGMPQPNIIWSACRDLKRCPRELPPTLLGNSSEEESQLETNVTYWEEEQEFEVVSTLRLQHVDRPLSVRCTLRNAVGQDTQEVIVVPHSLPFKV
# B1: target cyclic peptide 8 (peptide)
# peptide: cyclo(PYYVRKKYY[dP])
# SMILES: CC(C)[C@@H]1NC(=O)[C@H](Cc2ccc(O)cc2)NC(=O)[C@H](Cc2ccc(O)cc2)NC(=O)[C@@H]2CCCN2C(=O)[C@H]2CCCN2C(=O)[C@H](Cc2ccc(O)cc2)NC(=O)[C@H](Cc2ccc(O)cc2)NC(=O)[C@H](CCCCN)NC(=O)[C@H](CCCCN)NC(=O)[C@H](CCCNC(=N)N)NC1=O
# notes: also called ^LP-Y-Y-V-R / ^DP-Y-Y-K-K
# B2: target cyclic peptide 4 (peptide)
# peptide: cyclo(PEAVRKKAI[dP])
# SMILES: CC[C@H](C)[C@@H]1NC(=O)[C@H](C)NC(=O)[C@H](CCCCN)NC(=O)[C@H](CCCCN)NC(=O)[C@H](CCCNC(=N)N)NC(=O)[C@H](C(C)C)NC(=O)[C@H](C)NC(=O)[C@H](CCC(=O)O)NC(=O)[C@@H]2CCCN2C(=O)[C@H]2CCCN2C1=O
# notes: also called compound 4
# B3: target cyclic peptide 5 (peptide)
# peptide: cyclo(PESVRKKSI[dP])
# SMILES: CC[C@H](C)[C@@H]1NC(=O)[C@H](CO)NC(=O)[C@H](CCCCN)NC(=O)[C@H](CCCCN)NC(=O)[C@H](CCCNC(=N)N)NC(=O)[C@H](C(C)C)NC(=O)[C@H](CO)NC(=O)[C@H](CCC(=O)O)NC(=O)[C@@H]2CCCN2C(=O)[C@H]2CCCN2C1=O
# notes: also called compound 5
# B4: target cyclic peptide 7 (peptide)
# peptide: cyclo(PYIVRKKPY[dP])
# SMILES: CC[C@H](C)[C@@H]1NC(=O)[C@H](Cc2ccc(O)cc2)NC(=O)[C@@H]2CCCN2C(=O)[C@H]2CCCN2C(=O)[C@H](Cc2ccc(O)cc2)NC(=O)[C@@H]2CCCN2C(=O)[C@H](CCCCN)NC(=O)[C@H](CCCCN)NC(=O)[C@H](CCCNC(=N)N)NC(=O)[C@H](C(C)C)NC1=O
# notes: also called ^LP-Y-I-V-R / ^DP-Y-P-K-K
# Molecular target: platelet-derived growth factor β-receptor (PDGFR-β) (Homo sapiens, UniProt P09619)
# Assay: Solid-phase assay: displacement of 125I-PDGF-BB from immobilized PDGFR-β
# Assay type: binding
# Conditions: not given
# Experimental: Direct immobilization of platelet-derived growth factor […] is performed by overnight incubation in immunosorbent 96-well plates (Nunc) at 4° C. using 100 ng of purified protein in 100 μl of 15 mM Na2CO3, 35 mM NaHCO3, pH 9.6. The plates are washed once with tris-buffered saline (TBS, 20 mM Tris-HCl, 150 mM NaCl, pH 7.4), and nonspecific adsorption is blocked by at least 1 h of incubation with TBS plus 1% bovine serum albumin (BSA). Following washing with TBS plus 0.1% Tween, 3000 cpm of ^125I-PDGF-BB and increasing amounts of unlabeled PDGF-BB or the peptide derivative of formula I are added to duplicate wells and incubated for 3 h at room temperature in 0.1% Tween, 1 mM CaCl2, 1 mM MgCl2 and 1% BSA. The plates are washed three times with TBS plus 0.1% Tween, and bound ligand is removed with 0.1 M citric acid, pH 2.5, prior to counting in a γ-counter.
# Direct immobilization of platelet-derived growth factor β-receptor (PDGFR-β) was performed by overnight incubation in immunosorbent 96-well plates (Nunc) at 4° C. using 100 ng of purified protein in 100 μl of 15 mM Na2CO3, 35 mM NaHCO3, pH 9.6. Plates were washed once with Tris-buffered saline (TBS, 20 mM Tris-HCL, 150 mM Na Cl, pH 7.4), and nonspecific adsorption was blocked by at least 1 h of incubation with TBS plus 1% bovine serum albumin (BSA). Following washing with TBS plus 0.1% Tween, 3000 cpm of ^125I-PDGF-BB and increasing amounts of unlabeled PDGF-BB or the peptides to be tested were added to duplicate wells and incubated for 3 h at room temperature in TBS plus 0.1% Tween, 1 mM CaCl2, 1 mM MgCl2, and 1% BSA. The plates were washed three times with TBS plus 0.1% Tween, and the bound ligand was removed with 0.1 M citric acid, pH 2.5, before counting in a γ-counter.
# The cyclic peptides were analyzed and purified by preparative HPLC (dual-pump Pharmacia system with Waters RCM-μBondapak®-C18-cartridges, 10 μm 300 A 25×100 mm for prep. and 8×100 mm for anal., with flow rates of 8 and 2 ml/mim, respectively; UV detection at 226 and 278 nm), then MS, NMR(600 MHz,1 H) and CD. Solid-phase assays were run, as described in 2.4.
# Sequence of platelet-derived growth factor β-receptor (PDGFR-β) (Homo sapiens, UniProt P09619) (P09619 33-1106, species assumed): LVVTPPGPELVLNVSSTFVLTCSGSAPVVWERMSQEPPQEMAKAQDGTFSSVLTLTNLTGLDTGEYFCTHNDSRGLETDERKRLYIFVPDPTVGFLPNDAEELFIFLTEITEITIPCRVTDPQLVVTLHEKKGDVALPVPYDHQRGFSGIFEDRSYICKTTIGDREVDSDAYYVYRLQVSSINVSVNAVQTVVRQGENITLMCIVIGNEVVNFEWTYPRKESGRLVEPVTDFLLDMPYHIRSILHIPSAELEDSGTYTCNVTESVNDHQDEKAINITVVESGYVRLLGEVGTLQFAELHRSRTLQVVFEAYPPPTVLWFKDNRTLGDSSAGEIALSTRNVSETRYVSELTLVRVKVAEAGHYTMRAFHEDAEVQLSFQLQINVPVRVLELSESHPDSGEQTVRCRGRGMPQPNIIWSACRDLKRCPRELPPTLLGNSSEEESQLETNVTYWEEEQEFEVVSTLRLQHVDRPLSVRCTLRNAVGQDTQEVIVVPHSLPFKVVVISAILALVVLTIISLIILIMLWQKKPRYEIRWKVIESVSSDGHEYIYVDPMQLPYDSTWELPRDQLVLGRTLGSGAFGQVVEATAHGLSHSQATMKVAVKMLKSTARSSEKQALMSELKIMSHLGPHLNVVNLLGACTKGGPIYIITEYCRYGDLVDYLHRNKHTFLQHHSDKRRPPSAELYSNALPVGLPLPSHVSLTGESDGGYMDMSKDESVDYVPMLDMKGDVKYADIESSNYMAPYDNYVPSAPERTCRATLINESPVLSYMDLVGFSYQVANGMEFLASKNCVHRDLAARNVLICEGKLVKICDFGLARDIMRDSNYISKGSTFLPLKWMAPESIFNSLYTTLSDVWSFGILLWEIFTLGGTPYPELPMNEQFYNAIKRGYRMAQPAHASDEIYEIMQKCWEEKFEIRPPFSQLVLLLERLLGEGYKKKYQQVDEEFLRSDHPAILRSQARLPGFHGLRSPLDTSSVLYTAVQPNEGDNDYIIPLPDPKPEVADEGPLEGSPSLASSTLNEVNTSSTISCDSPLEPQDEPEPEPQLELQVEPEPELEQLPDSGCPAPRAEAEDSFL
row,Molecule,IC50
1,CC(C)[C@@H]1NC(=O)[C@H](Cc2c[nH]c3ccccc23)NC(=O)[C@H](Cc2ccc(O)cc2)NC(=O)[C@@H]2CCCN2C(=O)[C@H]2CCCN2C(=O)[C@H](Cc2ccc(O)cc2)NC(=O)[C@H](Cc2c[nH]c3ccccc23)NC(=O)[C@H](CCCCN)NC(=O)[C@H](CCCCN)NC(=O)[C@H](CCCNC(=N)N)NC1=O [Example 9] (cyclo(YWVRKKWY[dP]P)),500 µM

# Same assay, conditions: competition with 125I-PDGF-BB, 3 h at room temperature, immobilized purified PDGFR-β; read-out: Assay I50
row,IC50,Molecule
1,2200 µM,CC[C@H](C)[C@@H]1NC(=O)[C@H](CCC(=O)O)NC(=O)[C@@H]2CCCN2C(=O)[C@H]2CCCN2C(=O)[C@H]([C@@H](C)CC)NC(=O)[C@@H]2CCCN2C(=O)[C@H](CCCCN)NC(=O)[C@H](CCCCN)NC(=O)[C@H](CCCNC(=N)N)NC(=O)[C@H](C(C)C)NC1=O [Example 1] (cyclo(PEIVRKKPI[dP]))
2,2000 µM,CC[C@H](C)[C@@H]1NC(=O)[C@H](Cc2ccc(O)cc2)NC(=O)[C@H](CCCCN)NC(=O)[C@H](CCCCN)NC(=O)[C@H](CCCNC(=N)N)NC(=O)[C@H](C(C)C)NC(=O)[C@H](Cc2ccc(O)cc2)NC(=O)[C@H](CCC(=O)O)NC(=O)[C@@H]2CCCN2C(=O)[C@H]2CCCN2C1=O [Example 2] (cyclo(PEYVRKKYI[dP]))
3,1500 µM,CC[C@H](C)[C@@H]1NC(=O)[C@H](Cc2c[nH]c3ccccc23)NC(=O)[C@H](CCCCN)NC(=O)[C@H](CCCCN)NC(=O)[C@H](CCCNC(=N)N)NC(=O)[C@H](C(C)C)NC(=O)[C@H](Cc2c[nH]c3ccccc23)NC(=O)[C@H](CCC(=O)O)NC(=O)[C@@H]2CCCN2C(=O)[C@H]2CCCN2C1=O [Example 3] (cyclo(PEWVRKKWI[dP]))
4,1500 µM,CC[C@H](C)[C@@H]1NC(=O)[C@H](Cc2ccc(O)cc2)NC(=O)[C@@H]2CCCN2C(=O)[C@H]2CCCN2C(=O)[C@H](Cc2ccc(O)cc2)NC(=O)[C@@H]2CCCN2C(=O)[C@H](CCCCN)NC(=O)[C@H](CCCCN)NC(=O)[C@H](CCCNC(=N)N)NC(=O)[C@H](C(C)C)NC1=O [Example 7] (cyclo(PYIVRKKPY[dP]))
5,800 µM,CC(C)[C@@H]1NC(=O)[C@H](Cc2ccc(O)cc2)NC(=O)[C@H](Cc2ccc(O)cc2)NC(=O)[C@@H]2CCCN2C(=O)[C@H]2CCCN2C(=O)[C@H](Cc2ccc(O)cc2)NC(=O)[C@H](Cc2ccc(O)cc2)NC(=O)[C@H](CCCCN)NC(=O)[C@H](CCCCN)NC(=O)[C@H](CCCNC(=N)N)NC1=O [Example 8] (cyclo(PYYVRKKYY[dP]))
6,2000 µM,CC(C)[C@@H]1NC(=O)[C@H](C)NC(=O)[C@H](Cc2ccc(O)cc2)NC(=O)[C@@H]2CCCN2C(=O)[C@H]2CCCN2C(=O)[C@H](Cc2ccc(O)cc2)NC(=O)[C@H](C)NC(=O)[C@H](CCCCN)NC(=O)[C@H](CCCCN)NC(=O)[C@H](CCCNC(=N)N)NC1=O [Example 10] (cyclo(PYAVRKKAY[dP]))
7,2000 µM,CC(C)[C@@H]1NC(=O)[C@H](CO)NC(=O)[C@H](Cc2ccc(O)cc2)NC(=O)[C@@H]2CCCN2C(=O)[C@H]2CCCN2C(=O)[C@H](Cc2ccc(O)cc2)NC(=O)[C@H](CO)NC(=O)[C@H](CCCCN)NC(=O)[C@H](CCCCN)NC(=O)[C@H](CCCNC(=N)N)NC1=O [Example 11] (cyclo(PYSVRKKSY[dP]))
8,1500 µM,CC(C)[C@@H]1NC(=O)[C@H](CCCCN)NC(=O)[C@H](Cc2ccc(O)cc2)NC(=O)[C@@H]2CCCN2C(=O)[C@H]2CCCN2C(=O)[C@H](Cc2ccc(O)cc2)NC(=O)[C@H](CCCCN)NC(=O)[C@H](CCCCN)NC(=O)[C@H](CCCCN)NC(=O)[C@H](CCCNC(=N)N)NC1=O [Example 12] (cyclo(PYKVRKKKY[dP]))
9,260 µM,CC[C@H](C)[C@@H]1NC(=O)[C@H](Cc2c[nH]c3ccccc23)NC(=O)[C@@H]2CCCN2C(=O)[C@H]2CCCN2C(=O)[C@H](Cc2c[nH]c3ccccc23)NC(=O)[C@@H]2CCCN2C(=O)[C@H](CCCCN)NC(=O)[C@H](CCCCN)NC(=O)[C@H](CCCNC(=N)N)NC(=O)[C@H](C(C)C)NC1=O [Example 13] (cyclo(PWIVRKKPW[dP]))
10,170 µM,CC(C)[C@@H]1NC(=O)[C@H](Cc2ccc(O)cc2)NC(=O)[C@H](Cc2c[nH]c3ccccc23)NC(=O)[C@@H]2CCCN2C(=O)[C@H]2CCCN2C(=O)[C@H](Cc2c[nH]c3ccccc23)NC(=O)[C@H](Cc2ccc(O)cc2)NC(=O)[C@H](CCCCN)NC(=O)[C@H](CCCCN)NC(=O)[C@H](CCCNC(=N)N)NC1=O [Example 14] (cyclo(PWYVRKKYW[dP]))
11,800 µM,CC(C)[C@@H]1NC(=O)[C@H](C)NC(=O)[C@H](Cc2c[nH]c3ccccc23)NC(=O)[C@@H]2CCCN2C(=O)[C@H]2CCCN2C(=O)[C@H](Cc2c[nH]c3ccccc23)NC(=O)[C@H](C)NC(=O)[C@H](CCCCN)NC(=O)[C@H](CCCCN)NC(=O)[C@H](CCCNC(=N)N)NC1=O [Example 16] (cyclo(PWAVRKKAW[dP]))
12,800 µM,CC(C)[C@@H]1NC(=O)[C@H](CO)NC(=O)[C@H](Cc2c[nH]c3ccccc23)NC(=O)[C@@H]2CCCN2C(=O)[C@H]2CCCN2C(=O)[C@H](Cc2c[nH]c3ccccc23)NC(=O)[C@H](CO)NC(=O)[C@H](CCCCN)NC(=O)[C@H](CCCCN)NC(=O)[C@H](CCCNC(=N)N)NC1=O [Example 17] (cyclo(PWSVRKKSW[dP]))
13,500 µM,CC(C)[C@@H]1NC(=O)[C@H](CCCCN)NC(=O)[C@H](Cc2c[nH]c3ccccc23)NC(=O)[C@@H]2CCCN2C(=O)[C@H]2CCCN2C(=O)[C@H](Cc2c[nH]c3ccccc23)NC(=O)[C@H](CCCCN)NC(=O)[C@H](CCCCN)NC(=O)[C@H](CCCCN)NC(=O)[C@H](CCCNC(=N)N)NC1=O [Example 18] (cyclo(PWKVRKKKW[dP]))
14,2000 µM,CC(C)[C@@H]1NC(=O)[C@H](Cc2ccc(O)cc2)NC(=O)[C@H](C)NC(=O)[C@@H]2CCCN2C(=O)[C@H]2CCCN2C(=O)[C@H](C)NC(=O)[C@H](Cc2ccc(O)cc2)NC(=O)[C@H](CCCCN)NC(=O)[C@H](CCCCN)NC(=O)[C@H](CCCNC(=N)N)NC1=O [Example 20] (cyclo(PAYVRKKYA[dP]))

# Molecular target: T1, platelet-derived growth factor …
# Assay: solid-phase competition, displacement of 125I-PDGF-BB from plate-immobilised PDGFR-β
# Conditions: not given
row,IC50,Molecule
1,800 µM,B1
2,< 2500 µM,B2
3,2500 µM,B3
4,1500 µM,B4
